Tests used:
Format in all cases: toxicity, cell-based
Fibroblast = assay: Incucyte cell viability with human fibroblast; conditions: 10 µM, compound concentration 10 uM
HEK-293T = assay: Incucyte cell viability with HEK293T; conditions: human, 10 µM, compound concentration 10 uM
U2OS = assay: Incucyte cell viability with U2OS; conditions: human, 10 µM, compound concentration 10 uM
[1] = 0 h, replicate number 1, timepoint 0 hours
[2] = 0 h, replicate number 2, timepoint 0 hours
[3] = 6 h, replicate number 1, timepoint 6 hours
[4] = 12 h, replicate number 1, timepoint 12 hours
[5] = 12 h, replicate number 2, timepoint 12 hours
[6] = 18 h, replicate number 1, timepoint 18 hours
[7] = 18 h, replicate number 2, timepoint 18 hours
[8] = 24 h, replicate number 1, timepoint 24 hours
[9] = 24 h, replicate number 2, timepoint 24 hours
[10] = 6 h, replicate number 2, timepoint 6 hours
Note: unitless GR value; below 1 slowed growth and below 0 cell loss.

SMILES: COC[C@@H](CC(C)C)NC1=N/C(=C\c2ccc3ncsc3c2)C(=O)N1C
- Growth Rate (Fibroblast; [1]): 0.25
- Growth Rate (Fibroblast; [2]): -0.23
- Growth Rate (HEK-293T; [1]): -0.43
- Growth Rate (HEK-293T; [2]): -0.15
- Growth Rate (HEK-293T; [3]): 0.84
- Growth Rate (HEK-293T; [4]): 0.24
- Growth Rate (HEK-293T; [5]): 0.41
- Growth Rate (HEK-293T; [6]): 0.39
- Growth Rate (HEK-293T; [7]): 0.38
- Growth Rate (HEK-293T; [8]): 0.48
- Growth Rate (HEK-293T; [9]): 0.42
- Growth Rate (U2OS; [2]): 0.78
- Growth Rate (U2OS; [4]): 0.43
- Growth Rate (U2OS; [5]): 0.53
- Growth Rate (U2OS; [6]): 0.22
- Growth Rate (U2OS; [7]): 0.38
- Growth Rate (U2OS; [8]): 0.25
- Growth Rate (U2OS; [9]): 0.35

SMILES: CCCN(CCC)[C@@H]1CCc2ccc3[nH]c(C#N)cc3c2C1.Cl
- Growth Rate (Fibroblast; [2]): -0.06
- Growth Rate (Fibroblast; [3]): 0.01
- Growth Rate (Fibroblast; [6]): 0.97
- Growth Rate (Fibroblast; [8]): 0.95
- Growth Rate (HEK-293T; [1]): 0.55
- Growth Rate (HEK-293T; [2]): 0.54
- Growth Rate (HEK-293T; [3]): 0.81
- Growth Rate (HEK-293T; [4]): 0.81
- Growth Rate (HEK-293T; [8]): 1
- Growth Rate (HEK-293T; [9]): 0.95
- Growth Rate (U2OS; [1]): 0.61
- Growth Rate (U2OS; [2]): 0.9
- Growth Rate (U2OS; [3]): 0.8
- Growth Rate (U2OS; [6]): 0.73
- Growth Rate (U2OS; [8]): 0.95

SMILES: CCN1C(=CC(C)=O)Sc2ccc(OC)cc21
- Growth Rate (Fibroblast; [2]): 0.29
- Growth Rate (Fibroblast; [3]): -0.68
- Growth Rate (Fibroblast; [4]): 0.45
- Growth Rate (Fibroblast; [6]): 0.69
- Growth Rate (Fibroblast; [8]): 0.7
- Growth Rate (HEK-293T; [2]): -1
- Growth Rate (HEK-293T; [3]): 0.17
- Growth Rate (HEK-293T; [4]): 0.45
- Growth Rate (HEK-293T; [6]): 0.69
- Growth Rate (HEK-293T; [8]): 0.72
- Growth Rate (U2OS; [1]): -0.04
- Growth Rate (U2OS; [2]): -0.03
- Growth Rate (U2OS; [3]): 0.65
- Growth Rate (U2OS; [4]): 0.7
- Growth Rate (U2OS; [5]): 0.88
- Growth Rate (U2OS; [6]): 0.63
- Growth Rate (U2OS; [8]): 0.89

SMILES: CCCC(CCC)C(=O)O [VALPROIC ACID]
- Growth Rate (Fibroblast; [2]): 0.88
- Growth Rate (Fibroblast; [3]): 0.27
- Growth Rate (Fibroblast; [4]): 0.85
- Growth Rate (HEK-293T; [1]): 0.84
- Growth Rate (HEK-293T; [2]): 0.39
- Growth Rate (HEK-293T; [3]): 0.68
- Growth Rate (HEK-293T; [6]): 0.94
- Growth Rate (HEK-293T; [8]): 0.87
- Growth Rate (U2OS; [1]): 0.41
- Growth Rate (U2OS; [2]): -1
- Growth Rate (U2OS; [10]): 0.75
- Growth Rate (U2OS; [4]): 0.96
- Growth Rate (U2OS; [6]): 0.9
- Growth Rate (U2OS; [7]): 0.81

SMILES: CC(C)(C)c1ccc(S(=O)(=O)Nc2ccc(Cl)cc2C(=O)c2cc[n+]([O-])cc2)cc1 [VERCIRNON]
- Growth Rate (Fibroblast; [1]): 0.29
- Growth Rate (Fibroblast; [2]): 0.25
- Growth Rate (Fibroblast; [6]): 1
- Growth Rate (Fibroblast; [8]): 0.69
- Growth Rate (HEK-293T; [3]): 0.87
- Growth Rate (HEK-293T; [10]): 0.35
- Growth Rate (HEK-293T; [5]): 0.73
- Growth Rate (HEK-293T; [7]): 0.91
- Growth Rate (U2OS; [2]): -1
- Growth Rate (U2OS; [3]): 0.94
- Growth Rate (U2OS; [6]): 0.78

SMILES: Cc1c(C(=O)Nc2ccc(N3C[C@@H](C)O[C@@H](C)C3)nc2)cccc1-c1ccc(OC(F)(F)F)cc1 [SONIDEGIB]
- Growth Rate (Fibroblast; [1]): 0.97
- Growth Rate (Fibroblast; [2]): 0.63
- Growth Rate (Fibroblast; [3]): 0.45
- Growth Rate (Fibroblast; [4]): 0.42
- Growth Rate (Fibroblast; [6]): 0.13
- Growth Rate (Fibroblast; [8]): 0.36
- Growth Rate (HEK-293T; [2]): -0.95
- Growth Rate (HEK-293T; [3]): 0.25
- Growth Rate (HEK-293T; [10]): -0.63
- Growth Rate (HEK-293T; [4]): -0.06
- Growth Rate (HEK-293T; [5]): -0.54
- Growth Rate (HEK-293T; [6]): 0
- Growth Rate (HEK-293T; [7]): -0.39
- Growth Rate (HEK-293T; [8]): 0.05
- Growth Rate (HEK-293T; [9]): -0.3
- Growth Rate (U2OS; [1]): -0.44
- Growth Rate (U2OS; [2]): -1
- Growth Rate (U2OS; [9]): 0.97

SMILES: CC(C)CC(=O)Nc1cncc(-c2ccc3[nH]nc(-c4nc5c(-c6cccc(F)c6)cncc5[nH]4)c3c2)c1 [LORECIVIVINT]
- Growth Rate (Fibroblast; [2]): 0.49
- Growth Rate (Fibroblast; [3]): -0.2
- Growth Rate (Fibroblast; [10]): -0.06
- Growth Rate (Fibroblast; [4]): 0.36
- Growth Rate (Fibroblast; [5]): -0.03
- Growth Rate (Fibroblast; [6]): 0.73
- Growth Rate (Fibroblast; [7]): 0.01
- Growth Rate (Fibroblast; [8]): 0.43
- Growth Rate (Fibroblast; [9]): -0.02
- Growth Rate (HEK-293T; [3]): -0.81
- Growth Rate (HEK-293T; [10]): -0.95
- Growth Rate (HEK-293T; [4]): -0.55
- Growth Rate (HEK-293T; [5]): -0.81
- Growth Rate (HEK-293T; [6]): -0.48
- Growth Rate (HEK-293T; [7]): -0.64
- Growth Rate (HEK-293T; [8]): -0.44
- Growth Rate (HEK-293T; [9]): -0.57
- Growth Rate (U2OS; [1]): -0.33
- Growth Rate (U2OS; [2]): -0.94
- Growth Rate (U2OS; [3]): -0.82
- Growth Rate (U2OS; [10]): -0.16
- Growth Rate (U2OS; [4]): -0.56
- Growth Rate (U2OS; [5]): 0.32
- Growth Rate (U2OS; [6]): -0.16
- Growth Rate (U2OS; [7]): 0.98
- Growth Rate (U2OS; [8]): 0.71

From ChEMBL document CHEMBL5058564, “EUbOPEN Chemogenomics Library 2 (Incucyte)” (2022)
